Source: patent publication US6372736B1, “Heterocyclic compounds as inhibitors of rotamase enzymes” (Pfizer INC, priority 1999, dated 2002)
Counter-ions that a name gives are not always drawn.

molecular target: human recombinant FKBP-12 (Homo sapiens, UniProt P62942); test: coupled colorimetric PPIase (rotamase) assay, FKBP-12; type: biochemical; conditions: succinyl-AFPF-pNA substrate, chymotrypsin-coupled, 10° C., pH 8.0; read-out: IC50 for inhibition of the FKBP-12 enzyme
Description: The affinity of the compounds of the formula (I) for FKBP-12 can be determined in vitro in a coupled calorimetric PPlase assay using similar procedures to published methods (e.g. see Kofron, J. L., et al., Biochemistry, 1991,30, 6127-6134, Zarnt, T., et al., Biochem. J. 1995, 305, 159-164, Holt, D. A., et al., J. Am. Chem. Soc., 1993, 115, 9925-9938). In these methods, the cis-trans isomerisation of a hydrophobic amino acid-proline bond in a tetrapeptide substrate (e.g. the phenylalanine-proline bond in N-succinyl-ala-phe-pro-phe-p-nitroanilide [succinyl-AFPF-pNA]) can be determined by monitoring cleavage of pNA from the transPro-containing peptide by an excess of chymotrypsin.
The IC50 (the concentration of the compound of the formula (I) producing 50% inhibition) values were determined using the following assay methodology. Assay buffer (2.175 ml) (50 mM 4-(2-hydroxyethyl)-1-piperazineethanesulphonic acid (HEPES), 100 mM NaCl, 1 mM dithiothreitol (DTT), pH 8.0) is equilibrated to 10° C. in a cuvette. 12.5 μl of a solution of the present compound in DMSO, 250 μl of a 60 mg/ml solution of α-chymotrypsin in 1 mM aqueous hydrochloric acid and then 50 μl of a solution of human recombinant FKBP-12 (4.5 μM) in assay buffer are added and mixed. The reaction is initiated by addition of 12.5 μl of a solution of 20 mM succinyl-AFPF-pNA in DMSO. The absorbance at 390 nm is monitored for one minute collecting data every 0.25 second. Data are fitted with a first order rate equation with offset and the rate constant obtained corrected for the rate of uncatalysed isomerisation of the substrate. The rate constant determined at different inhibitor concentrations (10 nM to 100 μM) is expressed as % inhibition of the control rate constant. The IC50 is estimated using a non-linear least squares curve fitting routine of the sigmoidal dose response data.

Chain of human recombinant FKBP-12 (P62942 whole entry): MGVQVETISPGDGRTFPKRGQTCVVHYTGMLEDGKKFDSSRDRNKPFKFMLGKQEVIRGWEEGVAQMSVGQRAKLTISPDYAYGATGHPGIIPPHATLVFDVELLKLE

| IC50 [µM] | Compound |
| --- | --- |
| < 1.2 | O=C(N[C@H]1CCN(Cc2ccccc2)C1)[C@@H]1CCCCN1c1nc2ccccc2o1 [Example 2, (2S)-1-(1,3-Benzoxazol-2-yl)-N^2-[(3S)-1-benzylpyrrolidin-3-yl]-2-piperidinecarboxamide] |
| < 1.2 | O=C(N[C@H]1CCN(Cc2ccccn2)C1)[C@@H]1CCCCN1c1nc2ccccc2o1 [Example 6, (2S)-1-(1,3-Benzoxazol-2-yl)-N^2-[(3S)-1-(2-pyridinylmethyl)pyrrolidin-3-yl]-2-piperidinecarboxamide] |
| < 1.2 | O=C(N[C@H]1CCN(Cc2cccnc2)C1)[C@@H]1CCCCN1c1nc2ccccc2o1 [Example 7, (2S)-1-(1,3-Benzoxazol-2-yl)-N^2-[(3S)-1-(3-pyridinylmethyl)pyrrolidin-3-yl]-2-piperidinecarboxamide] |
| < 1.2 | O=C(N[C@H]1CCN(Cc2ccncc2)C1)[C@@H]1CCCCN1c1nc2ccccc2o1 [Example 8, (2S)-1-(1,3-Benzoxazol-2-yl)-N^2-[(3S)-1-(4-pyridinylmethyl)pyrrolidin-3-yl]-2-piperidinecarboxamide] |
| < 1.2 | NC(=O)c1cccc(CN2CC[C@H](NC(=O)[C@@H]3CCCCN3c3nc4ccccc4o3)C2)c1 [Example 13a, (2S)-N^2-1-{(3S)-1-[3-(Aminocarbonyl)phenylmethyl]pyrrolidin-3-yl}-1-(1,3-benzoxazol-2-yl)-2-piperidinecarboxamide] |
| < 1.2 | O=C(N[C@H]1CCN(Cc2ccccc2)C1)[C@@H]1CCCCN1c1nc2ccc(Br)cc2o1 [Example 15, (2S)-N^2-[(3S)-1-Benzylpyrrolidin-3-yl]-1-(6-bromo-1,3-benzoxazol-2-yl)-2-piperidinecarboxamide] |
| < 1.2 | O=C(N[C@H]1CCN(Cc2cc3ccccc3nc2Cl)C1)[C@@H]1CCCCN1c1nc2ccccc2o1 [Example 16] |
| < 1.2 | O=C(N[C@H]1CCN(Cc2ccnc3ccccc23)C1)[C@@H]1CCCCN1c1nc2ccccc2o1 [Example 17] |
| < 1.2 | O=C(N[C@H]1CCN(Cc2ccc3ccccc3n2)C1)[C@@H]1CCCCN1c1nc2ccccc2o1 [Example 18] |
| < 1.2 | O=C(N[C@H]1CCN(Cc2cnc3ccccc3c2)C1)[C@@H]1CCCCN1c1nc2ccccc2o1 [Example 19] |
| < 1.2 | CC(c1ccnc2ccccc12)N1CC[C@H](NC(=O)[C@@H]2CCCCN2c2nc3ccccc3o2)C1 (stereo partly shown) [Example 20] |
| < 1.2 | O=C(N[C@H]1CCN(C(=O)c2ccc3ccccc3n2)C1)[C@@H]1CCCCN1c1nc2ccccc2o1 [Example 21, (2S)-N^2-{(3S)-1-[Quinolin-2-ylcarbonyl]pyrrolidin-3-yl}-1-(1,3-benzoxazol-2-yl)-2-piperidinecarboxamide] |
| < 1.2 | O=C(N[C@H]1CCN(C(=O)c2cc(-c3ccccc3)nc3ccccc23)C1)[C@@H]1CCCCN1c1nc2ccccc2o1 [Example 22, (2S)-N^2-{(3S)-1-[2-Phenylquinolin-4-ylcarbonyl]pyrrolidin-3-yl}-1-(1,3-benzoxazol-2-yl)-2-piperidinecarboxamide] |
| < 1.2 | COc1cc(C(=O)N2CC[C@H](NC(=O)[C@@H]3CCCCN3c3nc4ccccc4o3)C2)nc2ccccc12 [Example 23, (2S)-N^2-{(3S)-1-[4-Methoxyquinolin-2-ylcarbonyl]pyrrolidin-3-yl}-1-(1,3-benzoxazol-2-yl)-2-piperidinecarboxamide] |
| < 1.2 | COc1ccc2nc(-c3ccccc3)cc(C(=O)N3CC[C@H](NC(=O)[C@@H]4CCCCN4c4nc5ccccc5o4)C3)c2c1 [Example 24, (2S)-N^2-{(3S)-1-[6-Methoxy-2-phenylquinolin-4-ylcarbonyl]pyrrolidin-3-yl}-1-(1,3-benzoxazol-2-yl)-2-piperidinecarboxamide] |
| < 1.2 | O=C(N[C@H]1CCN(C(=O)c2cc(N3CCCCC3)nc3ccccc23)C1)[C@@H]1CCCCN1c1nc2ccccc2o1 [Example 25, (2S)-N^2-{(3S)-1-[2-Piperidinoquinolin-4-ylcarbonyl]pyrrolidin-3-yl}-1-(1,3-benzoxazol-2-yl)-2-piperidinecarboxamide] |
| < 1.2 | O=C(N[C@H]1CCN(C(=O)c2cc(Cl)nc3ccccc23)C1)[C@@H]1CCCCN1c1nc2ccccc2o1 [Example 26, (2S)-N^2-{(3S)-1-[2-Chloroquinolin-4-ylcarbonyl]pyrrolidin-3-yl}-1-(1,3-benzoxazol-2-yl)-2-piperidinecarboxamide] |
| < 1.2 | O=C(N[C@H]1CCN(C(=O)c2ccc3cn[nH]c3c2)C1)[C@@H]1CCCCN1c1nc2ccccc2o1 [Example 27, (2S)-N^2-{(3S)-1-[1H-benzpyrazol-6-ylcarbonyl]pyrrolidin-3-yl}-1-(1,3-benzoxazol-2-yl)-2-piperidinecarboxamide] |
| < 1.2 | O=C(NC1CCCN(Cc2ccccc2)C1)[C@@H]1CCCCN1c1nc2ccccc2o1 (stereo partly drawn) [Example 30, (2S)-1-(1,3-Benzoxazol-2-yl)-N^2-(1-benzyl-3-piperidinyl)-2-piperidinecarboxamide] |
| < 1.2 | O=C(N[C@H]1CN[C@H](COCc2ccccc2)C1)[C@@H]1CCCCN1c1nc2ccccc2o1 [Example 35, (2S)-1-(1,3-Benzoxazol-2-yl)-N^2-(3R,5S)-5-[(benzyloxy)methyl]pyrrolidin-3-yl-2-piperidinecarboxamide hydrochloride] |
| < 1.2 | O=C(N[C@H]1CCN(Cc2ccccc2)C1)C1CCCCN1c1nc2ccccc2[nH]1 (stereo partly shown) [Example 41] |

molecular target: T1, human recombinant FKBP52 (Homo sapiens, UniProt Q02790); test: PPIase (rotamase) assay, FKBP-52; type: biochemical; conditions: read-out: IC50 for inhibition of the FKBP-52 enzyme
T1 sequence (Q02790 1-459): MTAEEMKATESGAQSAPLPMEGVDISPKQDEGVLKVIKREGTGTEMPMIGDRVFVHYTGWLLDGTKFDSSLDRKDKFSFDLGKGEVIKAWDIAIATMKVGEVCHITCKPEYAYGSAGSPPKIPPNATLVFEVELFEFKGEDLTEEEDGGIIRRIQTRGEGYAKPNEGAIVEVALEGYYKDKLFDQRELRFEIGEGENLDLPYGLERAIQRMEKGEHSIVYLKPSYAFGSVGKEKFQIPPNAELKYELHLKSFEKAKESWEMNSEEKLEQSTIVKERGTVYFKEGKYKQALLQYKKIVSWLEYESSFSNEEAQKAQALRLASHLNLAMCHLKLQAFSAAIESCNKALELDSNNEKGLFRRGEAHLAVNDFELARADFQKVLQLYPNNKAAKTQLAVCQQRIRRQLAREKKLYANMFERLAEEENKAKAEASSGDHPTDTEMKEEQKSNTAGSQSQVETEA
Description: Assay buffer (2.175 ml) (50 mM HEPES, 100 mM NaCl, 1 mM DTT, pH 8.0) is equilibrated to 10° C. in a cuvette. 12.5 μl of a solution of the present compound in DMSO, 250 μl of a 60 mg/ml solution of α-chymotrypsin in 1 mM aqueous hydrochloric acid and then 50 μL of a solution of human recombinant FKBP-12 (1.5 μM) in assay buffer are added and mixed. The reaction is initiated by adding 1 2.5 μl of a solution of anhydrous succinyl-ALPF-pNA (100 μM final concentration) in a 400 mM solution of LiCl in trifluoroethanol. The absorbance at 390 nm is monitored for 3 minutes collecting data every 0.5 second. Data are fitted with a first order rate equation with offset and the initial velocity (v) is calculated from the concentration of cis (re leu-pro bond)-succinyl-ALPF-pNA at to and the first order rate constant at different inhibitor concentrations (I). Data in the form vinh/vcontrol v. [I] are fitted with an equation for reversible tight binding inhibition to generate values for Ki,app (see Morrison, J. F., et al, Comments Mol. Cell Biophys., 1985, 2, 347-368). This analysis is used when the Ki,app approaches the concentration of FKBP-12 in the assay (30 nM). […] The same methodology is used to generate Ki,app for FKBP52 with the following modifications: Forty microlitres human recombinant FKBP52 (5.2 μM) is substituted for FKBP12 and 2.185 ml assay buffer are used in the assay. […]

| IC50 [µM] | Compound |
| --- | --- |
| 2.79 | O=C(N[C@H]1CCN(Cc2ccccc2)C1)[C@@H]1CCCCN1c1nc2ccccc2o1 [Example 2, (2S)-1-(1,3-Benzoxazol-2-yl)-N^2-[(3S)-1-benzylpyrrolidin-3-yl]-2-piperidinecarboxamide] |
